In test [1] the test system is SFTSV. The conditions noted are these: cited from earlier work.
In a further test the test system is SFTSV Gc glycoprotein. The conditions noted are these: cited from earlier work.
In test [2] the test system is SFTSV. Format: cell-based, SFTSV HB29 strain.
For test [3], the system named is SFTSV. Format: cell-based, SFTSV HB29 strain. The source holds these as a separate data set.
In test [4] the test system is SFTSV. Format: cell-based, SFTSV HB29 strain. This is another data set of the same source.
The subject of test [5] is SFTSV. In words: microbe, parasite or virus in culture. The following applies: for IC50: Severe fever with thrombocytopenia syndrome virus. Format: cell-based, SFTSV HB29 strain.

Converted amounts (≈) assume the structure as drawn. “Also recorded” adds a separate entry of the source. Read-outs that look alike come from different tables or passages of the source. Positions of bridges follow the written chain, without caps; N, C: chain ends. Residues, ends and D or L forms follow the SMILES beside them.

On to `Oc1c(Cl)cc(Cl)c(Cl)c1Cc1c(O)c(Cl)cc(Cl)c1Cl` [hexachlorophene], for which, in the test on SFTSV [1], the anti-SFTSV activity result was “inhibited SFTSV replication at low micromolar concentrations”. Also, the likely target entry with SFTSV Gc glycoprotein is listed as “likely targets the SFTSV Gc glycoprotein”.
For the molecule `N=C(N)NCCC[C@@H]1NC(=O)[C@@H](NC(=O)[C@@H](N)CCCCN)CCCCNC(=O)[C@H](CO)NC(=O)CNC(=O)[C@H](Cc2ccccc2)NC(=O)CNC1=O` [HKU-P1] (H-KKRGFGS; lactam 2-C), in the test on SFTSV [2], the “anti-SFTSV activity (in words)” value is recorded as “best anti-SFTSV activity; also recorded: displayed anti-SFTSV effects”, the “dose dependence of viral load reduction” value is recorded as “reduced SFTSV viral load in a dose-dependent manner” and the “reduction in SFTSV viral RNA load” value is more than 50%. Further, the “SFTSV-NP expression (immunofluorescence)” value with SFTSV [3] is “markedly reduced”. For the same molecule, in the test on SFTSV [4], the “viral load reduction, post-infection group” value is recorded as “no significant viral load reduction” and the “viral load reduction, pre-infection group” value is “no significant viral load reduction”. In the test with SFTSV [5], the “combination effect (in words)” value was “synergistic antiviral effects in vitro; also recorded: consistently synergistic with favipiravir at different concentrations”.
With `NC(=O)c1nc(F)c[nH]c1=O` [Favipiravir], the IC50 stood at 1.25 ± 0.101 mg/L (≈ 7.94 µM) in the test on SFTSV [5] (Huh-7, read-out: Favipiravir IC50, alone); 0.979 ± 0.194 mg/L (≈ 6.23 µM) in the test with SFTSV [5] (Huh-7, read-out: Favipiravir IC50, with HKU-P1 62.5 μg/mL); 0.864 ± 0.132 mg/L (≈ 5.5 µM) with SFTSV [5] (Huh-7, read-out: Favipiravir IC50, with HKU-P1 125 μg/mL); 0.805 ± 0.105 mg/L (≈ 5.12 µM) in the test on SFTSV [5] (Huh-7, read-out: Favipiravir IC50, with HKU-P1 250 μg/mL). In addition, the “anti-SFTSV activity in vitro and in vivo” value with SFTSV [1] is “exhibit in vitro and in vivo activity against SFTSV”. Further, the broad-spectrum antiviral effects entry in the test with SFTSV [1] is reported as “broad-spectrum antiviral effects against various RNA viruses, including SFTSV”.

Source of the values: paper PMC8539749 (Viruses, 2021).
